Results on one compound are retold here after patent US20080044419A1, “Treatment of T Cell Mediated Diseases by Inhibition of Fgfr3” (Fibron Ltd., priority 2003, published 2008).

Assay [1] concerns cutaneous delayed type hypersensitivity reactions in mice. The assay can be described thus: Delayed type hypersensitivity (DTH) assay, oxazolone, ear thickness. The settings on record: treated mice, oxazolone challenge, measured after 24 hours. It is filed as in vivo. Here is the method:
The mouse model for cutaneous delayed type hypersensitivity reactions was used to investigate the effects of FGFR3 inhibitors on induced skin inflammation. Oxazolone solutions (2% and 0.5%) were prepared by dissolving 200 and 50 mg, respectively, of oxazolone in 8 ml of acetone and 2 ml of olive oil. Mice were challenged with oxazolone by topical application onto the abdomen of each mouse (100 μl of 2% oxazolone) followed by 10 μl of 0.5% oxazolone on the right ear after 6 days. Differences between right and left ear thickness, indicating DTH development, were measured after 24 hours using a microcaliper.

In assay [2] the test system is Collagen Induced Arthritis (CIA) mice. The assay can be described thus: Murine Collagen Induced Arthritis (CIA) model, paw edema. It is filed as in vivo. The settings on record: i.p. daily injections. The method, then:
Murine collagen-induced arthritis (CIA) is considered a useful model for studying human RA since the two diseases share numerous pathologic, immunological, and genetic features. The CIA model in mice results in a symmetric polyarthritis in which bone and cartilage erosion typically occur, 2-4 weeks after immunization with […] type II collagen on complete Freud's adjuvant (CFA).
Male DBA/l mice (8-10 weeks old) were subject to an intradermal injection at the base of the tail with 200 μg type II collagen purified from bovine articular cartilage emulsified in CFA. The mice received a booster injection of 200 μg type II collagen emulsified in CFA three weeks after the first dose.
The mice were checked daily and each animal with edema in one or more limbs was randomly assigned to one of several groups for further treatment. The thickness of each affected hind paw was measured with microcalipers. The results are expressed as a direct measure of paw width in millimeters.
Each mouse was injected intraperitoneally on the day following disease onset (day 1) with 100 ug anti-FGFR3-ScFv or anti-FGFR3 Fab′ or 20 mg/kg of a FGFR3 specific tyrosine kinase (TK) inhibitor (SU5402, Calbiochem, La Jolla, Calif.), followed by daily injections with 300 μg anti-FGFR3 ScFv or anti-FGFR3 Fab′ or with 20 mg/kg SU5402.

For the compound `Cc1c[nH]c(/C=C2\C(=O)Nc3ccccc32)c1CCC(=O)O` [SU5402], the “DTH reaction: induction of edema (ear thickness difference)” value in assay [1] is listed as “no induction of edema”. Also, the “reduction in paw edema” value in assay [2] was “significant reduction”.
